Results: patent US9765067B2, “Thiophen-2-yl-pyridin-2-yl-1H-pyrazole-4-carboxylic acid derivatives and the use thereof as soluble guanylate cyclase activators” (Novartis AG, priority 2014, dated 2017)

Target: T1, soluble guanylate cyclase (human GUCYA3/GUCYB3) overexpressed in CHO cells (Homo sapiens, UniProt Q02108+Q02153)
T1 construct: expressed in transfected cells
T1 sequence (Q02108 1-690 partner): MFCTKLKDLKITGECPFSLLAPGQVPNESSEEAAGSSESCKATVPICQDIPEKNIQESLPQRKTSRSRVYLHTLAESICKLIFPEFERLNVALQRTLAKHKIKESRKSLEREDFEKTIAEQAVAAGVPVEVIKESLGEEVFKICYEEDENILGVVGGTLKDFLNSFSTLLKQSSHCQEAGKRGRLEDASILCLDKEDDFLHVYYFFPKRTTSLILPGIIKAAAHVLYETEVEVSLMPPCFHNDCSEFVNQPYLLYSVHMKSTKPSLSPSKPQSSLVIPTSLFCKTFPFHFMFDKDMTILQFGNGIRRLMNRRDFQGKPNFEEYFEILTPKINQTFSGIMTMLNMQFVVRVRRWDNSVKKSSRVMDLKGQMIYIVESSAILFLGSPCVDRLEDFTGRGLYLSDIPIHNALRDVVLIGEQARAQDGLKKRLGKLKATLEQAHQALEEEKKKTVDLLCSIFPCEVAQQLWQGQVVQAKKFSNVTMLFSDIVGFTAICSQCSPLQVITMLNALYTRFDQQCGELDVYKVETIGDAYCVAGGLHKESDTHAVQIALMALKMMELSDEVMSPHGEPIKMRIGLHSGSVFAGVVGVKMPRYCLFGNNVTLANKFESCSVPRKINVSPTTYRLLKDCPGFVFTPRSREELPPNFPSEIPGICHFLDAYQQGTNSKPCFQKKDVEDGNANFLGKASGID
T1 sequence (Q02153 1-619): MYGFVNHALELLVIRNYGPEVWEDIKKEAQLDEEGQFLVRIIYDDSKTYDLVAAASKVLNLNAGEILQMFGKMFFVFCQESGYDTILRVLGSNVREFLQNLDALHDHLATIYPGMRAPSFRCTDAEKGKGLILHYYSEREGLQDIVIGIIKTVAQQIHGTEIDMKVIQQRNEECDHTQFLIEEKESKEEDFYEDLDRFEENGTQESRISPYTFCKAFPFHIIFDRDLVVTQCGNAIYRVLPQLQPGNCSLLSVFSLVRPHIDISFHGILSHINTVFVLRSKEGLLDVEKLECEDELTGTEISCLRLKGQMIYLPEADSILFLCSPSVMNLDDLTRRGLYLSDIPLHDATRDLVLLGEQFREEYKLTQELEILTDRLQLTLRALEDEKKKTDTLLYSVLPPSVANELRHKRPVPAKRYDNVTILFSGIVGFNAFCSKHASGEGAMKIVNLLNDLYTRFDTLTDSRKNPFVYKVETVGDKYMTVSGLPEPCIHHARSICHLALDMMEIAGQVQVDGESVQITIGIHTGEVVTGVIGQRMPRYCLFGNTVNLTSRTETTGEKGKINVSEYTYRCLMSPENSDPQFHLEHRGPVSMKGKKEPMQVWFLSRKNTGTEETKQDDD
Assay: CHO cellular assay (cGMP production, HTRF)
Format: cell-based
Details: CHO K1 clone 8E10 overexpressing human sGC, Cisbio HTRF, 1 h room temperature, 1 mM IBMX, 20 uM ODQ, minimum quantification limit 0.5 nM
From the text: Chinese hamster ovary (CHO) cells overexpressing soluble guanylate cyclase were generated to test the effect of sGC activators in a cellular context. Human cDNAs for GUCYA3 (RefSeq: NM_000856.3) and GUCYB3 (RefSeq: NM_000857.1) were amplified by PCR from a HUVEC (Human Umbilical Vein Endothelial Cells) cDNA library and cloned into mammalian expression vectors. CHO K1 cells (ATCC CCL-61) were transfected using Lipofectamine 2000 following manufacturer's instructions and stably expressing clones were identified by antibiotic selection. CHO GUCY clone 8E10 was used for subsequent experiments.
Cells were seeded at a density of 3000 cells/well in white 384-well proxyplates (Perkin Elmer) and incubated overnight, then the medium was removed and cells were washed with assay buffer (HBSS, 0.1% BSA, 1 mM IBMX, 20 uM ODQ). sGC activators were serially diluted in DMSO, then diluted in assay buffer prior to adding to cells (10 ul/well, final DMSO concentration 0.5%). Cells were incubated with compounds for 1 h room temperature, then assayed for cGMP production using Cisbio cGMP HTRF kit (62GM2PEC) according to manufacturer's instructions.
The EC50s are calculated based on the amount of cGMP interpolated from the standard curve, using a 4-parameter sigmoidal dose-response.

`Cc1cc(COc2ccc(C3CCN(C(=O)C4CC4)CC3)cc2C)c(-c2cccc(-n3ncc(C(=O)O)c3C(F)(F)F)n2)s1` [Example 5, 1-(6-(3-((4-(1-(Cyclopropanecarbonyl)piperidin-4-yl)-2-methylphenoxy)methyl)-5-methylthiophen-2-yl)pyridin-2-yl)-5-(trifluoromethyl)-1H-pyrazole-4-carboxylic acid] showed an EC50 of no more than 0.5 nM.

With `COC(=O)N1CCC(c2ccc(OCc3ccsc3-c3cccc(-n4ncc(C(=O)O)c4C(F)(F)F)n3)cc2)CC1` [Example 2-2, 1-(6-(3-((4-(1-(Methoxycarbonyl)piperidin-4-yl)phenoxy)methyl)thiophen-2-yl)pyridin-2-yl)-5-(trifluoromethyl)-1H-pyrazole-4-carboxylic acid] the EC50 was 32 nM.

`CCCc1cc(COc2ccc(C3CCN(CC(F)(F)F)CC3)cc2C)c(-c2cccc(-n3ncc(C(=O)O)c3C(F)(F)F)n2)s1` [Example 41, 1-(6-(3-((2-Methyl-4-(1-(2,2,2-trifluoroethyl)piperidin-4-yl)phenoxy)methyl)-5-propylthiophen-2-yl)pyridin-2-yl)-5-(trifluoromethyl)-1H-pyrazole-4-carboxylic acid] was tested, and the EC50 was 428 nM.

For `CCc1c(C(=O)O)cnn1-c1cccc(-c2sc(C)cc2CCc2ccc(C3CCN(C(=O)C4CC4)CC3)cc2C)n1` [Example 45, 1-(6-(3-(4-(1-(Cyclopropanecarbonyl)piperidin-4-yl)-2-methylphenethyl)-5-methylthiophen-2-yl)pyridin-2-yl)-5-ethyl-1H-pyrazole-4-carboxylic acid], the EC50 was no more than 0.5 nM.

In the case of `CCc1cc(OCc2cc(C)sc2-c2cccc(-n3ncc(C(=O)O)c3C(F)(F)F)n2)ccc1C1CCN(C(=O)C(O)CO)CC1` (racemic) [Example 44, (±)-1-(6-(3-((4-(1-(2,3-Ddihydroxypropanoyl)piperidin-4-yl)-3-ethylphenoxy)methyl)-5-methylthiophen-2-yl)pyridin-2-yl)-5-(trifluoromethyl)-1H-pyrazole-4-carboxylic acid], the EC50 is reported as 130 nM.

`CCc1c(C(=O)O)cnn1-c1cccc(-c2sc(C)c(C)c2COc2ccc(C3CCN(C(=O)C4CC4)CC3)cc2C)n1` [Example 10-6, 1-(6-(3-((4-(1-(Cyclopropanecarbonyl)piperidin-4-yl)-2-methylphenoxy)methyl)-4,5-dimethylthiophen-2-yl)pyridin-2-yl)-5-ethyl-1H-pyrazole-4-carboxylic acid] was tested, and the EC50 was no more than 0.5 nM.

`CCc1cc(OCc2cc(C)sc2-c2cccc(-n3ncc(C(=O)O)c3C(F)(F)F)n2)ccc1C1CCN(C(=O)C(C)(C)CO)CC1` [Example 12-10, 1-(6-(3-((3-Ethyl-4-(1-(3-hydroxy-2,2-dimethylpropanoyl)piperidin-4-yl)phenoxy)methyl)-5-methylthiophen-2-yl)pyridin-2-yl)-5-(trifluoromethyl)-1H-pyrazole-4-carboxylic acid] showed an EC50 of 33 nM.

Compound `Cc1c(OCc2ccsc2-c2cccc(-n3ncc(C(=O)O)c3C(F)(F)F)n2)ccc(C2CCN(C(=O)C3CC3)CC2)c1C` [Example 6-2, 1-(6-(3-((4-(1-(Cyclopropanecarbonyl)piperidin-4-yl)-2,3-dimethylphenoxy)methyl)thiophen-2-yl)pyridin-2-yl)-5-(trifluoromethyl)-1H-pyrazole-4-carboxylic acid] has an EC50 of 33 nM.

Compound `Cc1cc(COc2ccc(C3CC(C)(C)N(C(=O)C4CC4)C(C)(C)C3)cc2C)c(-c2cccc(-n3ncc(C(=O)O)c3C(F)(F)F)n2)s1` [Example 6-10, 1-(6-(3-((4-(1-(Cyclopropanecarbonyl)-2,2,6,6-tetramethylpiperidin-4-yl)-2-methylphenoxy)methyl)-5-methylthiophen-2-yl)pyridin-2-yl)-5-(trifluoromethyl)-1H-pyrazole-4-carboxylic acid] has an EC50 of 1 nM.

In the case of `Cc1cc(C2CCN(C(=O)C3CCNC3)CC2)ccc1OCc1ccsc1-c1cccc(-n2ncc(C(=O)O)c2C(F)(F)F)n1` (racemic) [Example 42, (±)-1-(6-(3-((2-Methyl-4-(1-(pyrrolidine-3-carbonyl)piperidin-4-yl)phenoxy)methyl)thiophen-2-yl)pyridin-2-yl)-5-(trifluoromethyl)-1H-pyrazole-4-carboxylic acid], the EC50 is reported as 620 nM.

In the case of `CCc1cc(NCc2cc(C)sc2-c2cccc(-n3ncc(C(=O)O)c3CC)n2)ccc1C1CCN(C(=O)C2CC2)CC1` [Example 37, 1-(6-(3-(((4-(1-(Cyclopropanecarbonyl)piperidin-4-yl)-3-ethylphenyl)amino)methyl)-5-methylthiophen-2-yl)pyridin-2-yl)-5-ethyl-1H-pyrazole-4-carboxylic acid], the EC50 is reported as no more than 0.5 nM.

Work on `CCC(=O)N1CCC(c2ccc(OCc3ccsc3-c3cccc(-n4ncc(C(=O)O)c4C(F)(F)F)n3)c(C)c2)CC1` [Example 2-5, 1-(6-(3-((2-Methyl-4-(1-propionylpiperidin-4-yl)phenoxy)methyl)thiophen-2-yl)pyridin-2-yl)-5-(trifluoromethyl)-1H-pyrazole-4-carboxylic acid] yielded an EC50 of 5.5 nM.

`CCc1c(C)sc(-c2cccc(-n3ncc(C(=O)O)c3C(F)(F)F)n2)c1COc1ccc(C2CCN(C(=O)C3CC3)CC2)cc1C` [Example 17, 1-(6-(3-((4-(1-(Cyclopropanecarbonyl)piperidin-4-yl)-2-methylphenoxy)methyl)-4-ethyl-5-methylthiophen-2-yl)pyridin-2-yl)-5-(trifluoromethyl)-1H-pyrazole-4-carboxylic acid] showed an EC50 of 1 nM.

With `Cc1cc(C2CCN(C3COC3)CC2)ccc1OCc1ccsc1-c1cccc(-n2ncc(C(=O)O)c2C(F)(F)F)n1` [Example 29, 1-(6-(3-((2-Methyl-4-(1-(oxetan-3-yl)piperidin-4-yl)phenoxy)methyl)thiophen-2-yl)pyridin-2-yl)-5-(trifluoromethyl)-1H-pyrazole-4-carboxylic acid] the EC50 was 67 nM.

Work on `Cc1cc(C2CCN(CC(F)(F)F)CC2)ccc1OCc1cc(C(C)C)sc1-c1cccc(-n2ncc(C(=O)O)c2C(F)(F)F)n1` [Example 40, 1-(6-(5-Isopropyl-3-((2-methyl-4-(1-(2,2,2-trifluoroethyl)piperidin-4-yl)phenoxy)methyl)thiophen-2-yl)pyridin-2-yl)-5-(trifluoromethyl)-1H-pyrazole-4-carboxylic acid] yielded an EC50 of 370 nM.

With `CCc1cc(OCc2ccsc2-c2cccc(-n3ncc(C(=O)O)c3C(F)(F)F)n2)ccc1C1CCN(C(=O)C2CC2)CC1` [Example 6-6, 1-(6-(3-((4-(1-(Cyclopropanecarbonyl)piperidin-4-yl)-3-ethylphenoxy)methyl)thiophen-2-yl)pyridin-2-yl)-5-(trifluoromethyl)-1H-pyrazole-4-carboxylic acid] the EC50 was no more than 0.5 nM.

Compound `CCc1c(C(=O)O)cnn1-c1cccc(-c2sc(C)c(C)c2COc2ccc(C3CCN(CC(F)(F)F)CC3)cc2C)n1` [Example 18-3, 1-(6-(4,5-Dimethyl-3-((2-methyl-4-(1-(2,2,2-trifluoroethyl)piperidin-4-yl)phenoxy)methyl)thiophen-2-yl)pyridin-2-yl)-5-ethyl-1H-pyrazole-4-carboxylic acid] has an EC50 of 2 nM.

In the case of `Cc1cc(C2CCN(C(=O)C3CCC3)CC2)ccc1OCc1ccsc1-c1cccc(-n2ncc(C(=O)O)c2C(F)(F)F)n1` [Example 12-1, 1-(6-(3-((4-(1-(Cyclobutanecarbonyl)piperidin-4-yl)-2-methylphenoxy)methyl)thiophen-2-yl)pyridin-2-yl)-5-(trifluoromethyl)-1H-pyrazole-4-carboxylic acid], the EC50 is reported as no more than 0.5 nM.
